The values that follow are results of earlier work, collected in patent publication US7666442B2 (Tracie Martyn International, LLC, priority 2004, dated 2010).

For data set [1] the following is noted: using only natural ingredients (botanicals, antioxidants, coffe oil and microfine zinc oxide).
For data set [2] the following is noted: orally at dosages above 500 mg/kg body weight in animal studies.

Consider `Cc1ncc(CO)c(CN)c1O` [Pyridoxamine, 4-aminomethyl-5-hydroxy-6-methyl-3-pyridinemethanol], for which the Water solubility entry is listed as “water-soluble”. For the compound `COc1ccc(C=CC(=O)OCCC(C)C)cc1` [isoamyl-p-methoxycinnamate], the spf result in data set [1] was “greater than 30”. Take `NCCC(=O)N[C@@H](Cc1cnc[nH]1)C(=O)O` [Carnosine, beta-alanyl-L-histidine]: in data set [2], the “Safety after oral administration” value is “safe”.
